Here are results for 5 compounds from patent US20260294905A1, “USE OF PLURALITY OF COMPOUNDS IN PREPARATION OF DRUG FOR TREATING MYELOPROLIFERATIVE NEOPLASMS” (THE SECOND XIANGYA HOSPITAL OF CENTRAL SOUTH UNIVERSITY, priority 2022, published 2026).

Data set [1] concerns HEL cells (human erythroleukemia cell line). The data set can be described thus: CellTiter-Lumi luminescence proliferation of naive HEL cells, 48 h. It counts as cell-based. To be noted: for activity at 0.1 µM / activity at 0.3 µM / activity at 1 µM / activity at 3 µM / activity at 10 µM: vs DMSO control, read-out: average proliferation rate of HEL cells. As to the method:
(§1) HELs (Human erythroleukemia cell lines) and Ruxolitinib-resistant HEL cells were both cultured in a RPMI medium (Gibco) containing 20% heat-inactivated fetal bovine serum (Gibco) and 1% penicillin/streptomycin.
(§2) Ruxolitinib and other compounds were all purchased from Selleck, dissolved in DMSO with a stock solution concentration of 10 mM, and cryopreserved at −80° C. The working solution was diluted to a specified multiple using a RPMI medium and then used for treating cells. Ruxolitinib was specifically ruxolitinib phosphate.
(§3) To detect the antiproliferative effect of the inhibitor, the aforementioned cell lines were cultured at 3,000 cells/100 μL of the system per well, added with increasing concentrations of Ruxolitinib (concentration gradients of HEL cells: 0, 0.1, 1, 2.5, 5 μM; or 0, 0.1, 0.3, 1, 3, 10 μM), and added with DMSO to make up to the same amount. 4 parallel replicate groups were set up, and 3 blank wells (wells containing culture media without cells) were set up.
(§4) A calculation formula of the cell proliferation rate was: cell proliferation rate=(Luminescence value of the group added with the drug-average Luminescence value of the blank wells)/(Luminescence value of the DMSO control group-average Luminescence value of the blank wells)×100%.
In order to detect the effects of the compounds on the proliferation abilities of drug-resistant myeloproliferative neoplasm cells, the method was to treat the HEL naïve cell lines with increasing concentrations of Ruxolitinib and the compounds respectively, and to detect the proliferation of the cells by a CellTiter-Lumi™ luminescence method.

Data set [2] has as its system HEL^RE cells (Ruxolitinib-resistant HEL). The data set can be described thus: CellTiter-Lumi luminescence proliferation of Ruxolitinib-resistant HEL^RE cells, 48 h. It counts as cell-based, human. To be noted: for inhibition of proliferation of HEL^RE cells (in words): 0.1-10 μM; for activity at 0.1 µM / activity at 0.3 µM / activity at 1 µM / activity at 3 µM / activity at 10 µM: vs DMSO control, read-out: average proliferation rate of HEL^RE cells.
From the text: as §1
A Ruxolitinib-resistant HEL model, i.e., a HEL^RE model, was constructed by starting the addition of Ruxolitinib at a concentration lower than the IC50 of naïve cells and slowly incrementing the concentration to a high concentration, and preventing the cells from being killed. Our starting concentration was 0.1 μM. The drug was added upon occurrence of cell proliferation. The drug addition gradient was an increment at a multiple of 1.25, and the final concentration was 2.0 μM. Stable drug-resistant cells were obtained after 4-6 weeks.
as §2, §3, §4
A method for evaluating whether the model was successfully constructed was to compare the IC50s of resistant cells and naïve cells.
In order to detect the effects of five compounds on the proliferation abilities of drug-resistant myeloproliferative neoplasm cells, the method was to treat HEL^RE with increasing concentrations of Ruxolitinib and the five compounds respectively, and to detect the proliferation of the cells by a CellTiter-Lumi™ luminescence method.

For data set [3], the system named is HEL cells (human erythroleukemia cell line). As to the kind of experiment: Annexin V-PI staining and flow cytometry, apoptosis of HEL cells, 24 h. The data set is classed as cell-based. How it is done:
• 1. the cell lines and inhibitors were the same as those in Example 1. • 2. detection of cell apoptosis
(§5) To detect the apoptosis-promoting effect of the inhibitors, HEL naïve cell strains were treated with Ruxolitinib and the compounds for 24 hours respectively (with concentrations of: 0, 0.1, 0.5, 1 μM or 0, 0.1, 0.3, 1, 3, 10 μM), and added with DMSO to make up to the same amount. 3 parallel replicate groups were set up, and cell apoptosis was detected by Annexin V and PI staining followed by flow cytometry.
(§6) A calculation formula of cell apoptosis rate was: cell apoptosis rate=the ratio of early apoptotic cells (Annexin V^+/PI^−)+the ratio of late apoptotic cells and necrotic cells (Annexin V^+/PI^+).
For orientation: A flow cytometer gives signals particle by particle.

Data set [4] concerns HEL^RE cells (Ruxolitinib-resistant HEL). As to the kind of experiment: Annexin V-PI staining and flow cytometry, apoptosis of HEL^RE cells. The data set is classed as cell-based, human. To be noted: for average apoptosis rate of HEL-RE cells: 24 h; for promotion of apoptosis of HEL^RE cells (in words): 0.1-10 μM. As to the method: as §5, §6
In order to detect the effects of compounds on the abilities of drug-resistant myeloproliferative neoplasm cells, the method was to treat HEL^RE with increasing concentrations of Ruxolitinib and the compounds, and to detect cell apoptosis by Annexin V and PI staining followed by flow cytometry.

Data set [5] relates to myeloproliferative neoplasms patients. To be noted: cited from earlier work; for effect on symptoms, clonal hematopoiesis, mutant gene load / side effects / safety in patients: clinical use.
[6] abbreviates: Homo sapiens, HEL^RE cells, 48 h.

Where “and” joins values, the source holds several entries; their conditions need not be identical. Equal values may be shown once. Entries after “also recorded” stand apart in the source; their conditions may differ.

For `Cc1ccc2c(Nc3cccc(Cl)c3F)nccc2c1NC(=O)c1csc2c(N)ncnc12` [Belvarafenib], in data set [1] (0.1-10 μM), the “inhibition of proliferation of HEL cells (in words)” value is recorded as “could not inhibit the proliferation of the HEL cells”. The activity at 0.1 µM in data set [1] (Homo sapiens, 48 h) is 98.9 ± 6.41%; in data set [2] (setting [6]), 104 ± 6.13%. The activity at 0.3 µM in data set [1] (Homo sapiens, 48 h) was determined as 89.2 ± 4.68%; in data set [2] (setting [6]) it was 92.4 ± 2.45%. Further, the activity at 1 µM stood at 98.2 ± 3.19% in data set [1] (Homo sapiens, 48 h) and 70.4% in data set [2] (setting [6]). In addition, the activity at 3 µM was found to be 90.1 ± 4.72% in data set [1] (Homo sapiens, 48 h) and 45.4 ± 2.33% in data set [2] (setting [6]). The activity at 10 µM stood at 87.3 ± 2.39% in data set [1] (Homo sapiens, 48 h) and 31.1 ± 3.6% in data set [2] (setting [6]). For the same compound, the “inhibition of proliferation of HEL^RE cells (in words)” value in data set [2] (HEL^RE cells) is “could inhibit the proliferation of the HEL^RE cells, and this effect increased with increase in the drug concentration”. For the same compound, the “average apoptosis rate of HEL cells” value in data set [3] (0.1 μM) was 6.58±0.760% and 6.58%; in data set [3] (0.3 μM), 7.42±0.950% and 7.42%; in data set [3] (1 μM) it was 7.80±0.700% and 7.80%; in data set [3] (3 μM), 7.17±1.31% and 7.17%; in data set [3] (10 μM), 7.55±0.160% and 7.55%. In data set [3] (0.1-10 μM), the “promotion of apoptosis of HEL cells (in words)” value is recorded as “could not promote apoptosis of the HEL cells”. Moreover, the “average apoptosis rate of HEL-RE cells” value in data set [4] (0.1 μM) is 5.55±0.440% and 5.55%; in data set [4] (0.3 μM) it was 5.40±0.570% and 5.40%; in data set [4] (1 μM), 5.71±0.260% and 5.71%; in data set [4] (3 μM), 6.05±0.430% and 6.05%; in data set [4] (10 μM), 7.13±0.450% and 7.13%. The “promotion of apoptosis of HEL^RE cells (in words)” value in data set [4] is “could not promote apoptosis of the HEL^RE cells”.

Consider `Cn1c(Nc2ccc(C(F)(F)F)cc2)nc2cc(Oc3ccnc(-c4ncc(C(F)(F)F)[nH]4)c3)ccc21` [RAF265], for which the “inhibition of proliferation of HEL cells (in words)” value in data set [1] (0.1-10 μM) is on record as “can successfully inhibit the proliferation of the HEL cells; also recorded: could inhibit the proliferation of the HEL cells, this effect was increased with the increase of the drug concentration”. In data set [1] (0.1-10 μM), the “inhibitory effect on proliferation compared with Ruxolitinib” value was “its inhibitory effect was better than that of Ruxolitinib”. Moreover, the activity at 0.1 µM in data set [1] (Homo sapiens, 48 h) was 66.1 ± 4.71%; in data set [2] (setting [6]), 92 ± 3.92%. For the same compound, the activity at 0.3 µM in data set [1] (Homo sapiens, 48 h) turned out to be 45.2 ± 2.96%; in data set [2] (setting [6]) it was 67.2 ± 3.7%. Moreover, the activity at 1 µM in data set [1] (Homo sapiens, 48 h) was 37 ± 2.18%; in data set [2] (setting [6]), 35.8 ± 3.88%. The activity at 3 µM in data set [1] (Homo sapiens, 48 h) came to 30 ± 0.13%; in data set [2] (setting [6]), 21.8 ± 1.48%. For the same compound, the activity at 10 µM in data set [1] (Homo sapiens, 48 h) was 19.2 ± 0.99%; in data set [2] (setting [6]), 3.45 ± 0.58%. Besides, the “overall effectiveness among the compounds” value in data set [1] (proliferation and apoptosis taken together) is “more effective”; in data set [2] (HEL^RE cells, proliferation and apoptosis taken together), “more effective”. In addition, the “inhibition of proliferation of HEL^RE cells (in words)” value in data set [2] (HEL^RE cells) is “could inhibit the proliferation of the HEL^RE cells, and this effect increased with increase in the drug concentration”. The “average apoptosis rate of HEL cells” value in data set [3] (0.1 μM) was 7.24±1.30% and 7.24%; in data set [3] (0.3 μM), 7.19±0.400% and 7.19%; in data set [3] (1 μM), 8.11±0.260% and 8.11%; in data set [3] (3 μM), 10.7±1.22% and 10.7%; in data set [3] (10 μM), 12.8±1.44% and 12.8%. For the same compound, in data set [3] (0.1-10 μM), the “effect on apoptosis compared with Ruxolitinib” value was “its inhibitory effect was better than that of Ruxolitinib”. For the same compound, in data set [3] (0.1-10 μM), the “promotion of apoptosis of HEL cells (in words)” value was “could promote the apoptosis of the HEL cells, this effect was increased with the increase of the drug concentration; also recorded: can promote the apoptosis of the HEL cells”. In addition, the “average apoptosis rate of HEL-RE cells” value in data set [4] (0.1 μM) was 6.48±0.480% and 6.48%; in data set [4] (0.3 μM), 7.31±0.140% and 7.31%; in data set [4] (1 μM) it was 8.24±0.730% and 8.24%; in data set [4] (3 μM), 11.9±0.520% and 11.9%; in data set [4] (10 μM), 19.1±3.75% and 19.1%. Besides, the “promotion of apoptosis of HEL^RE cells (in words)” value in data set [4] was “could promote apoptosis of the HEL^RE cells, and this effect increased with increase in the drug concentration; also recorded: can promote the apoptosis of the HEL^RE cells”.

Turning to `N#CC[C@H](C1CCCC1)n1cc(-c2ncnc3[nH]ccc23)cn1` [Ruxolitinib], the activity at 0.1 µM in data set [1] (Homo sapiens, 48 h) turned out to be 80.9 ± 1.35%; in data set [2] (setting [6]), 105 ± 2.08%. Also, the activity at 0.3 µM came out at 54.9 ± 4.35% in data set [1] (Homo sapiens, 48 h) and 105 ± 3.59% in data set [2] (setting [6]). The activity at 1 µM in data set [1] (Homo sapiens, 48 h) is 42.7 ± 4.05%; in data set [2] (setting [6]) it was 104 ± 9.46%. In addition, the activity at 3 µM in data set [1] (Homo sapiens, 48 h) came to 34.7 ± 1.14%; in data set [2] (setting [6]), 109 ± 4.39%. For the same compound, the activity at 10 µM in data set [1] (Homo sapiens, 48 h) was found to be 29.4 ± 0.49%; in data set [2] (setting [6]) it was 96 ± 3.69%. Further, the IC50 (as a rule, the concentration that gives 50% inhibition) in data set [1] (Homo sapiens, 48 h, mean (95% confidence interval)) was found to be 2.31 µM; in data set [2] (Homo sapiens, HEL^RE cells, 48 h, mean (95% confidence interval)) it was 44.7 µM. In addition, the “drug resistance index (ratio of IC50s of resistant and naive cells)” value in data set [2] (HEL^RE vs HEL cells, 2880 min) came to 19.0. Also, the “average apoptosis rate of HEL cells” value in data set [3] (0.1 μM) is 7.40±0.059% and 7.40%; in data set [3] (0.3 μM), 7.46±0.679% and 7.46%; in data set [3] (1 μM) it was 8.61±0.403% and 8.61%; in data set [3] (3 μM), 7.19±0.209% and 7.19%; in data set [3] (10 μM) it was 6.36±0.036% and 6.36%. For the same compound, the “average apoptosis rate of HEL-RE cells” value in data set [4] (0.1 μM) was 12.4±0.540% and 12.4%; in data set [4] (0.3 μM) it was 13.0±1.03% and 13.0%; in data set [4] (1 μM), 10.8±1.02% and 10.8%; in data set [4] (3 μM) it was 10.2±0.880% and 10.2%; in data set [4] (10 μM) it was 10.6±1.33% and 10.6%. In addition, the “patients developing drug resistance” value in data set [5] (MF patients treated for 1 year, type I JAK inhibitors such as RUX) was “more than 40%”. Moreover, the “effect on symptoms, clonal hematopoiesis, mutant gene load” value in data set [5] is listed as “cannot reduce the load of mutant genes”. For the same compound, the “side effects / safety in patients” value in data set [5] is “more severe anemia; also recorded: bone marrow suppression as a common side effect”. Further, the “spleen volume and symptoms” value in data set [5] (intermediate- and high-risk MF and PV, Phase II and III trials, vs optimal therapy) was “can reduce the spleen volume and alleviate symptoms”.

Regarding `NC(=O)NO` [Hydroxyurea, hydroxyurea], in data set [5], the “effect on symptoms, clonal hematopoiesis, mutant gene load” value is reported as “can only relieve symptoms but cannot inhibit clonal hematopoiesis”; the “side effects / safety in patients” value was “may increase the risks of myelodysplastic syndrome and acute myelogenous leukemia”.

Regarding `Cc1cnc(Nc2ccc(OCCN3CCCC3)cc2)nc1Nc1cccc(S(=O)(=O)NC(C)(C)C)c1` [Fedratinib], in data set [5], the “side effects / safety in patients” value is “may cause encephalopathy, including the risk of Wernicke's encephalopathy”.
